{"source": "PubChem BioAssay (NCI)", "assay_in_all_cases": "NCI tumour cell line growth inhibition, 48 h", "key": {"LOX IMVI melanoma": {"test_system": "LOX IMVI melanoma"}, "OVCAR-8 ovarian": {"test_system": "OVCAR-8 ovarian"}, "SF-295 CNS": {"test_system": "SF-295 CNS"}, "SK-MEL-5 melanoma": {"test_system": "SK-MEL-5 melanoma"}, "UO-31 renal": {"test_system": "UO-31 renal"}, "HL-60(TB) leukemia": {"test_system": "HL-60(TB) leukemia"}, "DU-145 prostate": {"test_system": "DU-145 prostate"}, "HS 578T breast": {"test_system": "HS 578T breast"}, "MDA-MB-231 breast": {"test_system": "MDA-MB-231 breast"}, "PC-3 prostate": {"test_system": "PC-3 prostate"}}, "note": "Where “and” joins values, the source holds several entries; their conditions need not be identical. Equal values may be shown once.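 Cells were grown in 96-well plates and exposed to each compound for 48 hours at five concentrations; endpoints were interpolated linearly between bracketing concentrations, or set to the highest concentration if not reached. GI50 marks 50% less growth. TGI marks complete inhibition of growth.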", "data": [{"smiles": "Cc1cc2c(c(C(=O)O)c1C)-c1cccc(Cl)c1C2=O", "values": [{"measurement": "TGI", "setting": "LOX IMVI melanoma", "result": "> 100", "unit": "µM"}, {"measurement": "TGI", "setting": "OVCAR-8 ovarian", "result": "> 100", "unit": "µM"}, {"measurement": "TGI", "setting": "SF-295 CNS", "result": "> 100", "unit": "µM"}, {"measurement": "TGI", "setting": "SK-MEL-5 melanoma", "result": "> 100", "unit": "µM"}, {"measurement": "TGI", "setting": "UO-31 renal", "result": "> 100", "unit": "µM"}]}, {"smiles": "c1ccc2c(c1)[nH]c1c2nc2ccccn21", "values": [{"measurement": "GI50", "setting": "HL-60(TB) leukemia", "result": "42.8 µM and > 100 µM"}, {"measurement": "TGI", "setting": "HL-60(TB) leukemia", "result": "> 100", "unit": "µM"}, {"measurement": "TGI", "setting": "OVCAR-8 ovarian", "result": "> 100", "unit": "µM"}, {"measurement": "TGI", "setting": "SF-295 CNS", "result": "> 100", "unit": "µM"}, {"measurement": "TGI", "setting": "SK-MEL-5 melanoma", "result": "> 100", "unit": "µM"}, {"measurement": "TGI", "setting": "UO-31 renal", "result": "> 100", "unit": "µM"}]}, {"smiles": "Cc1c(C)c([N+](=O)[O-])c2c(c1N)C(=O)c1ccccc1C2=O", "values": [{"measurement": "TGI", "setting": "HL-60(TB) leukemia", "result": "> 100", "unit": "µM"}, {"measurement": "TGI", "setting": "LOX IMVI melanoma", "result": "> 100", "unit": "µM"}, {"measurement": "TGI", "setting": "OVCAR-8 ovarian", "result": "> 100", "unit": "µM"}, {"measurement": "TGI", "setting": "SF-295 CNS", "result": "> 100", "unit": "µM"}, {"measurement": "TGI", "setting": "SK-MEL-5 melanoma", "result": "> 100", "unit": "µM"}, {"measurement": "TGI", "setting": "UO-31 renal", "result": "> 100", "unit": "µM"}]}, {"smiles": "CC1=NN(c2cccc(Cl)c2)C(=O)/C1=C\\c1cn(CC(O)CN2CCCCC2)c2ccccc12", "note": "(centres undefined)", "values": [{"measurement": "GI50", "setting": "DU-145 prostate", "result": 10.4, "unit": "µM"}, {"measurement": "TGI", "setting": "DU-145 prostate", "result": 23.2, "unit": "µM"}, {"measurement": "GI50", "setting": "HL-60(TB) leukemia", "result": 2.89, "unit": "µM"}, {"measurement": "TGI", "setting": "HL-60(TB) leukemia", "result": 14.4, "unit": "µM"}, {"measurement": "GI50", "setting": "HS 578T breast", "result": 6.14, "unit": "µM"}, {"measurement": "TGI", "setting": "HS 578T breast", "result": 33.6, "unit": "µM"}, {"measurement": "GI50", "setting": "MDA-MB-231 breast", "result": 3.32, "unit": "µM"}, {"measurement": "TGI", "setting": "MDA-MB-231 breast", "result": 15.8, "unit": "µM"}, {"measurement": "GI50", "setting": "OVCAR-8 ovarian", "result": 6.93, "unit": "µM"}, {"measurement": "TGI", "setting": "OVCAR-8 ovarian", "result": 92.9, "unit": "µM"}, {"measurement": "GI50", "setting": "PC-3 prostate", "result": 9.81, "unit": "µM"}, {"measurement": "TGI", "setting": "PC-3 prostate", "result": 26.1, "unit": "µM"}, {"measurement": "GI50", "setting": "SF-295 CNS", "result": 2.24, "unit": "µM"}, {"measurement": "TGI", "setting": "SF-295 CNS", "result": 5.49, "unit": "µM"}, {"measurement": "GI50", "setting": "SK-MEL-5 melanoma", "result": 3.34, "unit": "µM"}, {"measurement": "TGI", "setting": "SK-MEL-5 melanoma", "result": 10.9, "unit": "µM"}, {"measurement": "GI50", "setting": "UO-31 renal", "result": 1.73, "unit": "µM"}, {"measurement": "TGI", "setting": "UO-31 renal", "result": 7.12, "unit": "µM"}]}, {"smiles": "O=C(Nc1ccc(Cl)cc1C(F)(F)F)C(=O)Nn1c(=S)[nH]c2ccccc2c1=O", "values": [{"measurement": "TGI", "setting": "HL-60(TB) leukemia", "result": "> 100", "unit": "µM"}, {"measurement": "TGI", "setting": "HS 578T breast", "result": "> 100", "unit": "µM"}, {"measurement": "TGI", "setting": "LOX IMVI melanoma", "result": "> 100", "unit": "µM"}, {"measurement": "TGI", "setting": "MDA-MB-231 breast", "result": "> 100", "unit": "µM"}, {"measurement": "TGI", "setting": "OVCAR-8 ovarian", "result": "> 100", "unit": "µM"}, {"measurement": "TGI", "setting": "PC-3 prostate", "result": "> 100", "unit": "µM"}, {"measurement": "TGI", "setting": "SF-295 CNS", "result": "> 100", "unit": "µM"}, {"measurement": "TGI", "setting": "SK-MEL-5 melanoma", "result": "> 100", "unit": "µM"}, {"measurement": "TGI", "setting": "UO-31 renal", "result": "> 100", "unit": "µM"}]}, {"smiles": "CC(=O)N1[C@H](C(=O)O)CS[C@H]1c1ccc(F)cc1", "values": [{"measurement": "TGI", "setting": "HL-60(TB) leukemia", "result": "> 100", "unit": "µM"}, {"measurement": "TGI", "setting": "LOX IMVI melanoma", "result": "> 100", "unit": "µM"}, {"measurement": "TGI", "setting": "OVCAR-8 ovarian", "result": "> 100", "unit": "µM"}, {"measurement": "TGI", "setting": "SF-295 CNS", "result": "> 100", "unit": "µM"}, {"measurement": "TGI", "setting": "SK-MEL-5 melanoma", "result": "> 100", "unit": "µM"}, {"measurement": "TGI", "setting": "UO-31 renal", "result": "> 100", "unit": "µM"}]}, {"smiles": "COc1cc2c(cc1OCCNC(=O)/C=C1\\C[C@H]3C=Nc4cc(OCc5ccccc5)c(OC)cc4C(=O)N3C1)N=C[C@@H]1CCCN1C2=O", "values": [{"measurement": "GI50", "setting": "DU-145 prostate", "result": 19.4, "unit": "µM"}, {"measurement": "TGI", "setting": "DU-145 prostate", "result": 37.3, "unit": "µM"}, {"measurement": "GI50", "setting": "HS 578T breast", "result": 5.7, "unit": "µM"}, {"measurement": "TGI", "setting": "HS 578T breast", "result": 25.2, "unit": "µM"}, {"measurement": "GI50", "setting": "LOX IMVI melanoma", "result": 2.75, "unit": "µM"}, {"measurement": "TGI", "setting": "LOX IMVI melanoma", "result": 7.31, "unit": "µM"}, {"measurement": "GI50", "setting": "MDA-MB-231 breast", "result": 5.11, "unit": "µM"}, {"measurement": "TGI", "setting": "MDA-MB-231 breast", "result": 23.4, "unit": "µM"}, {"measurement": "GI50", "setting": "OVCAR-8 ovarian", "result": 3.89, "unit": "µM"}, {"measurement": "TGI", "setting": "OVCAR-8 ovarian", "result": 23.1, "unit": "µM"}, {"measurement": "GI50", "setting": "PC-3 prostate", "result": 3.53, "unit": "µM"}, {"measurement": "TGI", "setting": "PC-3 prostate", "result": 33.7, "unit": "µM"}, {"measurement": "GI50", "setting": "SF-295 CNS", "result": 18.3, "unit": "µM"}, {"measurement": "TGI", "setting": "SF-295 CNS", "result": "> 100", "unit": "µM"}, {"measurement": "GI50", "setting": "SK-MEL-5 melanoma", "result": 1.3, "unit": "µM"}, {"measurement": "TGI", "setting": "SK-MEL-5 melanoma", "result": 20.8, "unit": "µM"}, {"measurement": "GI50", "setting": "UO-31 renal", "result": 22.9, "unit": "µM"}, {"measurement": "TGI", "setting": "UO-31 renal", "result": 66.1, "unit": "µM"}]}, {"smiles": "Cc1cccc(C)c1NC(=O)C(=O)Cc1nc2ccccc2s1", "values": [{"measurement": "TGI", "setting": "HL-60(TB) leukemia", "result": "> 100", "unit": "µM"}, {"measurement": "TGI", "setting": "LOX IMVI melanoma", "result": "> 100", "unit": "µM"}, {"measurement": "TGI", "setting": "OVCAR-8 ovarian", "result": "> 100", "unit": "µM"}, {"measurement": "TGI", "setting": "SF-295 CNS", "result": "> 100", "unit": "µM"}, {"measurement": "TGI", "setting": "SK-MEL-5 melanoma", "result": "> 100", "unit": "µM"}, {"measurement": "TGI", "setting": "UO-31 renal", "result": "> 100", "unit": "µM"}]}, {"smiles": "COc1cc(O)ccc1C(=S)SC", "values": [{"measurement": "TGI", "setting": "DU-145 prostate", "result": "> 100", "unit": "µM"}, {"measurement": "TGI", "setting": "HL-60(TB) leukemia", "result": "> 100", "unit": "µM"}, {"measurement": "TGI", "setting": "HS 578T breast", "result": 98.5, "unit": "µM"}, {"measurement": "TGI", "setting": "MDA-MB-231 breast", "result": 88.4, "unit": "µM"}, {"measurement": "TGI", "setting": "OVCAR-8 ovarian", "result": "> 100", "unit": "µM"}, {"measurement": "TGI", "setting": "PC-3 prostate", "result": "> 100", "unit": "µM"}, {"measurement": "TGI", "setting": "SF-295 CNS", "result": "> 100", "unit": "µM"}, {"measurement": "TGI", "setting": "SK-MEL-5 melanoma", "result": "> 100", "unit": "µM"}, {"measurement": "TGI", "setting": "UO-31 renal", "result": "> 100", "unit": "µM"}]}, {"smiles": "COc1ccc(-c2ccc(CC(=O)O)cc2)cc1OC", "values": [{"measurement": "TGI", "setting": "HL-60(TB) leukemia", "result": "> 100", "unit": "µM"}, {"measurement": "TGI", "setting": "OVCAR-8 ovarian", "result": "> 100", "unit": "µM"}, {"measurement": "TGI", "setting": "SF-295 CNS", "result": "> 100", "unit": "µM"}, {"measurement": "TGI", "setting": "SK-MEL-5 melanoma", "result": "> 100", "unit": "µM"}, {"measurement": "TGI", "setting": "UO-31 renal", "result": "> 100", "unit": "µM"}]}, {"smiles": "CC(=O)Nc1ccc(C2CC(c3ccc([N+](=O)[O-])cc3)=Nc3ccccc3S2)cc1", "note": "(centres undefined)", "values": [{"measurement": "TGI", "setting": "HL-60(TB) leukemia", "result": 49.7, "unit": "µM"}, {"measurement": "TGI", "setting": "LOX IMVI melanoma", "result": 32.3, "unit": "µM"}, {"measurement": "TGI", "setting": "OVCAR-8 ovarian", "result": 35.4, "unit": "µM"}, {"measurement": "TGI", "setting": "SF-295 CNS", "result": 35, "unit": "µM"}, {"measurement": "TGI", "setting": "UO-31 renal", "result": 27.8, "unit": "µM"}]}, {"smiles": "CN(C)C(=S)/N=c1\\ss/c(=N\\C(=S)N(C)C)n1-c1cccc(Cl)c1", "values": [{"measurement": "TGI", "setting": "HL-60(TB) leukemia", "result": "> 100", "unit": "µM"}, {"measurement": "TGI", "setting": "LOX IMVI melanoma", "result": "> 100", "unit": "µM"}, {"measurement": "TGI", "setting": "OVCAR-8 ovarian", "result": "> 100", "unit": "µM"}, {"measurement": "TGI", "setting": "SF-295 CNS", "result": "> 100", "unit": "µM"}, {"measurement": "TGI", "setting": "SK-MEL-5 melanoma", "result": "> 100", "unit": "µM"}, {"measurement": "TGI", "setting": "UO-31 renal", "result": "> 100", "unit": "µM"}]}]}
